Values quoted from earlier work in patent publication US4873075A, “Polyiodinated triglyceride analogs as radiologic agents” (The University of Michigan, priority 1985, dated 1989).

Test system: liver
Conditions: background statement

For “tetraiodotetrachlorofluorescein [^131 I-Rose Bengal]”, the “hepatic to intestinal output” value is listed as “slow rate of hepatic to intestinal output”.
